Test results published in PubChem BioAssay (NCI).
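Step 1: Grow cells in 96-well plates. Step 2: Expose to compound for 48 hours at 5 concentrations. Step 3: Interpolate endpoints linearly; if unreached, use highest concentration. TGI marks complete inhibition of growth.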

What was measured:
Test in all cases: DTP human tumour cell line panel, 48 h
IGROV1 ovarian = tested on: IGROV1 ovarian
U251 CNS = tested on: U251 CNS
NCI-H23 lung = tested on: NCI-H23 lung
M19-MEL melanoma = tested on: M19-MEL melanoma
SF-295 CNS = tested on: SF-295 CNS
M14 melanoma = tested on: M14 melanoma
SNB-75 CNS = tested on: SNB-75 CNS
MOLT-4 leukemia = tested on: MOLT-4 leukemia
SK-OV-3 ovarian = tested on: SK-OV-3 ovarian
786-0 renal = tested on: 786-0 renal
HOP-62 NSCLC = tested on: HOP-62 NSCLC
HT29 colon = tested on: HT29 colon
DMS 114 small cell lung = tested on: DMS 114 small cell lung
LOX IMVI melanoma = tested on: LOX IMVI melanoma
HCT-116 colon = tested on: HCT-116 colon
UO-31 renal = tested on: UO-31 renal
DLD-1 colon = tested on: DLD-1 colon
SNB-19 CNS = tested on: SNB-19 CNS
SK-MEL-28 melanoma = tested on: SK-MEL-28 melanoma
K-562 leukemia = tested on: K-562 leukemia
UACC-62 melanoma = tested on: UACC-62 melanoma
HOP-92 NSCLC = tested on: HOP-92 NSCLC
OVCAR-5 ovarian = tested on: OVCAR-5 ovarian
HL-60(TB) leukemia = tested on: HL-60(TB) leukemia
DMS 273 small cell lung = tested on: DMS 273 small cell lung
SW-620 colon = tested on: SW-620 colon
KM12 colon = tested on: KM12 colon
ACHN renal = tested on: ACHN renal
OVCAR-8 ovarian = tested on: OVCAR-8 ovarian
A498 renal = tested on: A498 renal
UACC-257 melanoma = tested on: UACC-257 melanoma
KM20L2 colon = tested on: KM20L2 colon
NCI-H460 lung = tested on: NCI-H460 lung
SK-MEL-5 melanoma = tested on: SK-MEL-5 melanoma
NCI-H226 lung = tested on: NCI-H226 lung
SK-MEL-2 melanoma = tested on: SK-MEL-2 melanoma
TK-10 renal = tested on: TK-10 renal
SR leukemia = tested on: SR leukemia
RXF 393 renal = tested on: RXF 393 renal
RPMI-8226 leukemia = tested on: RPMI-8226 leukemia
EKVX NSCLC = tested on: EKVX NSCLC
SF-268 CNS = tested on: SF-268 CNS
CCRF-CEM leukemia = tested on: CCRF-CEM leukemia
OVCAR-4 ovarian = tested on: OVCAR-4 ovarian
HCC-2998 colon = tested on: HCC-2998 colon
SN12C renal = tested on: SN12C renal
A549 NSCLC = tested on: A549 NSCLC
SF-539 CNS = tested on: SF-539 CNS
MALME-3M melanoma = tested on: MALME-3M melanoma
NCI-H522 lung = tested on: NCI-H522 lung
CAKI-1 renal = tested on: CAKI-1 renal
OVCAR-3 ovarian = tested on: OVCAR-3 ovarian
COLO 205 colon = tested on: COLO 205 colon
HOP-18 NSCLC = tested on: HOP-18 NSCLC
LXFL 529 NSCLC = tested on: LXFL 529 NSCLC
NCI/ADR-RES ovarian = tested on: NCI/ADR-RES ovarian
MDA-MB-435 = tested on: MDA-MB-435
T-47D breast = tested on: T-47D breast
MDA-N = tested on: MDA-N
HS 578T breast = tested on: HS 578T breast
MCF7 breast = tested on: MCF7 breast
MDA-MB-231 breast = tested on: MDA-MB-231 breast
HCT-15 colon = tested on: HCT-15 colon
PC-3 prostate = tested on: PC-3 prostate
BT-549 breast = tested on: BT-549 breast
DU-145 prostate = tested on: DU-145 prostate

Measured: TGI

COc1cc(/C=C2\NC(=O)C(Cc3cc(OC)c(OC)c(C)c3OC)N(C(C)=O)C2=O)c(OC)c(C)c1OC (stereo not given)
69.9 µM: HL-60(TB) leukemia
79.2 µM: NCI-H522 lung
99.6 µM: HOP-18 NSCLC
not listed: NCI/ADR-RES ovarian | MDA-MB-435 | T-47D breast | MDA-N | HS 578T breast | MCF7 breast | MDA-MB-231 breast | HCT-15 colon | PC-3 prostate | BT-549 breast | DU-145 prostate
> 100 µM: all other assays above

NC(N)=NCCCC(NCc1c2ccccc2nc2ccccc12)C(=O)O (stereo not given)
44.1 µM: HL-60(TB) leukemia
75.1 µM: CCRF-CEM leukemia
97.9 µM: LOX IMVI melanoma
> 83.2 µM: SR leukemia
> 89.4 µM: K-562 leukemia
86.7 µM: KM20L2 colon
79.4 µM: DMS 114 small cell lung
45 µM: MOLT-4 leukemia
> 53.3 µM: RPMI-8226 leukemia
> 86 µM: OVCAR-8 ovarian
> 83.5 µM: HOP-92 NSCLC
> 84.7 µM: OVCAR-4 ovarian
> 62.2 µM: SK-MEL-5 melanoma
69.9 µM: NCI-H522 lung
> 88.6 µM: UACC-257 melanoma
50.5 µM: DLD-1 colon
> 66.4 µM: HT29 colon
not listed: HOP-18 NSCLC
> 100 µM: all other assays above
